Reference: patent publication US20250090562A1, “METHODS, COMPOSITIONS AND USES RELATED TO THE TREATMENT AND PREVENTION OF LEIGH’S SYNDROME” (Stealth BioTherapeutics Inc., priority 2023, published 2025)
Entries after “also recorded” stand apart in the source; their conditions may differ.

Key:
[1] = system: rotenone-inhibited Complex I; test: Complex I-bypass assay ((CI)-bypass assay), high-resolution respirometry O2 consumption; format: cell-based, human; conditions: Leigh (GM03672) fibroblasts, 0.5 μM rotenone; for Complex I by-pass activity (restoration of oxygen consumption rate): titrations 125 nM to 8 μM
Protocol: All high-resolution respirometry experiments were conducted using the Oroboros O2k-Fluorespirometer (Oroboros, Innsbruck, Austria). The Oroboros O2k-Fluorespirometer was calibrated daily using the air calibration protocol on DatLab 7.4 (Oroboros, Innsbruck, Austria). Prior to each experiment requiring the fluorescence module, the AmpR calibration protocol from DatLab 7.4 was used to calibrate the fluorescence signal. Initial data analysis, including setting of marks, was performed using DatLab 7.4.
Complex I-bypass activity was assessed using HRR to measure O2 consumption. Briefly, Leigh (GM03672) fibroblasts were harvested with trypsin, pelleted at 300×g centrifugation, and resuspended in prewarmed, complete MEM. Cells were added to each chamber via buffer replacement at a concentration of 1-2 million per mL. The chambers were closed to initiate measurement of O2 consumption. The slope negative signal, which is a derivative of O2 consumption, was allowed to stabilize over the course of several minutes. Using a Hamilton syringe to allow for continuous measurement of O2 consumption, glutamate (10 mM final concentration) and malate (0.1 mM final concentration) were added to the closed chamber through the central capillary of the stopper. The slope negative signal was stabilized for several minutes, and rotenone was added at a final concentration of 0.5 μM. One of Compounds 1 to 4 or Vatiquinone was added at increasing concentrations, allowing for several minutes of stabilization of the slope negative signal between titrations. Marks were set at signal plateaus in between titrations. Values were exported and analyzed using GraphPad Prism 9. […] Responsiveness of cells was confirmed with idebenone.
Statistical analysis was performed using GraphPad Prism 9. Complex I-bypass data were fit using nonlinear sigmoidal 4P fit. RET Assay data were analyzed by 2-way ANOVA using a p-value of 0.05.
The Complex 1-bypass assay ((CI)-bypass Assay) evaluates the capacity of compounds to donate electrons into the electron transport chain (ETC) when Complex I is impaired or otherwise deficient. Normally, electrons feed into the ETC through Complex I. In instances where Complex I is impaired, electrons must enter the ETC downstream of Complex I for oxidative phosphorylation (OXPHOS) to occur. Complex I is composed of 46 subunits, encoded by mitochondrial and nuclear genes. Due to its large size, Complex I mutations are a common cause of ETC dysfunction in mitochondrial diseases. Indeed, mutations in the genes that encode subunits for Complex I are important causes of Leigh and Leigh-like syndrome.
Using this assay, the ability of Compounds 1 to 4 and Vatiquinone to bypass rotenone-inhibited Complex I was determined. Rotenone is a widely used Complex I inhibitor and blocks the transfer of electrons from the iron-sulfur complexes on Complex I to ubiquinone. Thus, when rotenone is introduced to cells underdoing routine respiration, a decrease in oxygen consumption is observed, which is indicative of disrupted OXPHOS. The ability of Compounds 1 to 4 and Vatiquinone to “bypass” Complex I and restore OXPHOS is measured by an increase in oxygen consumption rate following addition of the compound to the chamber.
In executing this assay, in each instance, fibroblasts are added to each chamber of the Oroboros Oxygraph-2K (the “O2k”). The O2k generates two traces: 1) total oxygen consumption over time, 2) the rate of oxygen consumption over time (slope negative). Baseline respiration is established for several minutes by allowing the slope negative to stabilize. Rotenone is introduced to each chamber at a final concentration of 0.5 μM. The addition of rotenone is expected to cause a marked reduction of OXPHOS as measured by a decreased rate of oxygen consumption. Then the test article (i.e., in this case one of Compounds 1 to 4 or Vatiquinone) is added to the chamber. […]

[2] = system: Leigh (GM03672) fibroblasts; test: Erastin cytoprotection assay, Leigh fibroblasts; format: cell-based, human; conditions: 2 μM erastin, 250 μM FAC, 50 μM AA, 10-1000 nM compound, 24 h
Protocol: (§1) Briefly, Healthy (GM08402) or Leigh (GM03672) fibroblasts were resuspended in assay medium, seeded at 10,000 cells per well in a clear, tissue cultured-treated, 96-well plate, and incubated at 37° C. overnight. Following the incubation, supernatant was manually aspirated from wells, taking care not to disrupt cells. Fibroblasts were co-treated in a final volume of 100 μL with 2 μM erastin (Millipore Corp., Cat #), 250 μM ferric ammonium citrate (FAC), 50 μM ascorbic acid (AA), and a titration of one of each of Compounds 1 to 4 or Vatiquinone ranging from 10 to 1000 nM. Following another 24-hour incubation at 37° C., cell viability was measured using the CellTiter-Glo Luminescent Cell Viability Kit (ProMega) per Manufacturer's instructions. Luminescence units were quantified by GEN5 software on a BioTek SYNERGY neo2 plate reader (LUM filter).
(§2) Briefly, erastin, like RSL3, is known to induce ferroptosis. […] Erastin was incubated with cell fibroblasts for 24 hours to induce ferroptosis. Cells were co-treated with each of Compounds 1 to 4, or Vatiquinone as the test articles. Test articles were administered at a range of concentrations to derive a curve. Cell viability was determined using a commercially available kit that measures ATP production. […] An increase in cell viability as determined by the assay is considered to be protective against ferroptosis.

[3] = system: Healthy (GM08402) fibroblasts; test: RSL3 cytoprotection assay, healthy fibroblasts; format: cell-based, human; conditions: for relative anti-ferroptosis properties (comparison between test articles): 1 μM RSL3, 10-1000 nM compound, 4 h
Protocol: (§3) Patient fibroblasts were acquired from Coriell Institute for Medical Research (Camden, NJ, USA). GM03672 is an untransformed fibroblast cell line from a Leigh syndrome patient carrying an unknown mutation. GM08402 is an untransformed fibroblast from an apparently healthy individual. Cells were cultured at 37° C. at 5% CO2 in Eagle's Minimum Essential Medium (MEM, Corning), which was supplemented with Earle's salts and non-essential amino acids, 15% qualified fetal bovine serum, and 1% penicillin/streptomycin ([…]) to yield “Complete MEM.”
(§4) To initiate the RSL3 cytoprotection experiment, Healthy (GM08402) and Leigh syndrome (GM03672) fibroblasts were resuspended in Complete MEM. Cells were seeded at 10,000 cells per well in a clear, tissue cultured-treated, 96-well plate and incubated at 37° C. overnight. Following the incubation, supernatant was manually aspirated, taking care not to disrupt cells. […]. Luminescence units were quantified by GEN5 software on a BioTek SYNERGY neo2 plate reader (LUM filter).
(§5) RSL3 is an inhibitor of the enzyme glutathione peroxidase 4 (GPX4), which decreases lipid peroxides. RSL3 inhibition of GPX4 induces ferroptosis through iron-dependent accumulation of lipid ROS. In this assay, Healthy or Leigh fibroblasts were treated for 4 hours with RSL3 to induce ferroptosis or left untreated. Endogenous ATP levels were measured as an indicator of cellular viability using a commercially available kit (CellTiter-Glo® 2.0 Cell Viability Assay (Promega)).
(§6) […]. […] Briefly, ferroptosis was induced with 1 μM RSL3 in healthy fibroblast cells and 375 nM RSL3 in fibroblasts from a patient with Leigh syndrome.
(§7) A preliminary experiment was performed to determine the effect of RSL3 injury on the fibroblasts of a healthy individual (cell line: GM08402) and the fibroblasts of a patient diagnosed with Leigh syndrome (cell line: GM03672).

[4] = system: Healthy (GM08402) fibroblasts; test: Erastin cytoprotection assay, healthy fibroblasts; format: cell-based, human; conditions: 2 μM erastin, 250 μM FAC, 50 μM AA, 10-1000 nM compound, 24 h
Protocol: as §1, §2

[5] = system: Leigh syndrome (GM03672) fibroblasts; test: RSL3 cytoprotection assay, Leigh fibroblasts; format: cell-based, human; conditions: for relative anti-ferroptosis properties (comparison between test articles): 375 nM RSL3, 10-1000 nM compound, 4 h
Protocol: as §3, §4, §5, §6, §7

[6] = system: 15-lipoxygenase (15-LO); test: 15(S)-HETE ELISA following RSL3 treatment, Leigh fibroblasts; format: cell-based, human; conditions: 700 nM RSL3, 1 μM compound, 24 h
Protocol: Samples for the 15(S)-HETE ELISA were generated by the RSL3 cytoprotection assay described above. Healthy or Leigh fibroblasts were resuspended in assay medium, seeded at 200,000 cells per well in a clear, tissue culture-treated, 24-well plate. Cells were incubated at 37° C. for 24 hours. Supernatant was aspirated from each well following the incubation.
Fibroblasts from both a healthy individual and a patient diagnosed with Leigh syndrome were examined (but not all compounds were examined in each cell type). Activation of ferroptosis has been implicated as a driver of epilepsy, which is commonly associated with Leigh syndrome. […] Kahn-Kirby et al. PLOS One. […] As a key regulator of ferroptosis, 15-LO serves as a rational therapeutic target in Leigh syndrome.

[7] = patients with pontocerebellar hypoplasia type 6; cited from earlier work
[8] = system: Leigh fibroblasts (GM03672); test: Mitochondrial membrane potential (TMRM flow cytometry) in RSL3-treated Leigh fibroblasts; format: cell-based, human; conditions: 1 μM RSL3 alone, 4 h
Protocol: Leigh fibroblasts (GM03672) were seeded in a 24-well, tissue culture-treated plate in complete MEM (MEM+15% FBS+1% penicillin/streptomycin) at a density of 1×10^5 cells per 500 μL and incubated overnight at 37° C. at 5% CO2. Cells were treated for 4 hours at 37° C. with either 1 μM RSL3, 1 μM RSL3 with 1 μM Compound 3 or media for untreated cells. Following the incubation, supernatant was removed and cells were treated with 0.25% trypsin for 5 min at 37° C. Trypsin was neutralized with an equal part MEM. Cells were dislodged with gentle pipetting and pelleted at 300×g for 5 minutes. Pellets were resuspended in 500 μL Fluobrite DMEM and cells were transferred to a 96-well, v-bottom plate. Cells were stained with 20 nM MitoTracker Green and 100 nM tetramethylrhodamine methyl ester (TMRM) Samples were incubated for 25 minutes at 37° C. Each well was mixed immediately prior to analysis to resuspend settled cells. Fluorescence intensity was measured on the BD Accuri C6 Plus Flow Cytometer. A minimum of 10,000 events per sample was collected. Data analysis was performed using FloJo vs. 10. Gating was performed by establishing an initial forward scatter vs. side scatter gate. MitoTracker Green positive, TMRM positive cells were identified through subsequent gating. Median fluorescence intensity (MFI) of TMRM fluorescence was determined. Using GraphPad Prism 10, statistical significance between groups was determined by One-way ANOVA. A p-value of less than 0.05 was considered significant. Results are presented graphically in FIG. 20.

relative 15-LO inhibition (comparison between test articles) [6]	SMILES	EC50 ([1]; oxygen consumption rate, read-out: EC50 value, Complex I by-pass activity) [µM]	Complex I by-pass activity (restoration of oxygen consumption rate) [1]	relative protective effect against erastin induced ferroptosis (cell viability, ATP) [2]	relative anti-ferroptosis properties (comparison between test articles) [3]	relative protective effect against erastin induced ferroptosis (cell viability, ATP) [4]	relative anti-ferroptosis properties (comparison between test articles) [5]	effect on seizures [7]	RSL3 concentration sufficient for 25-30% killing of cells ([3]; healthy fibroblasts GM08402, 4 h) [µM]	RSL3 concentration sufficient for 25-30% killing of cells ([5]; Leigh fibroblasts GM03672, 4 h) [nM]	mitochondrial membrane potential (TMRM MFI) [8]
superior to Compounds 2, 3 and 4	COC1=C(OC)C(=O)C(CCCCCCCCCC(F)(F)F)=C(C)C1=O [Compound 1]	~13.7	restored oxygen consumption rate in a dose-dependent manner	about equally protective	roughly equivalent in their anti-ferroptosis properties	about equally protective	roughly equivalent in their anti-ferroptosis properties				
	CC(C)=CCC/C(C)=C/CC/C(C)=C/CC[C@@](C)(O)CCC1=C(C)C(=O)C(C)=C(C)C1=O [Vatiquinone, reference compound]		no CI-bypass activity; also recorded: inactive	superior in its protective effect as compared with Compounds 1 and 4	roughly equivalent in their anti-ferroptosis properties	about equally protective	roughly equivalent in their anti-ferroptosis properties	reduce the incidence of seizures; also recorded: decrease seizure frequency and morbidity			
	COC(=O)c1ccc([C@H]2c3[nH]c4ccccc4c3C[C@H](C(=O)OC)N2C(=O)CCl)cc1 [RSL3, (1S,3R)-Methyl 2-(2-chloroacetyl)-2,3,4,9-tetrahydro-1-[4-(methoxycarbonyl)phenyl]-1H-pyrido[3,4-b]indole-3-carboxylate, reference compound]								1	700	significant reduction in mitochondrial membrane potential
